Patent publication US9491935B2, “Animal models of neurological disorders” (Ann & Robert H. Lurie Children's Hospital of Chicago, priority 2009, dated 2016)

How the values were obtained:
[1] = administered 3 hours prior to cocaine; cited from earlier work
CA1 pyramidal neurons = test: IPSC recordings in CA1 pyramidal cells of hippocampal slices; type: cell-based, mouse; details: 0.25 mM in recording ACSF; for spontaneous IPSCs (sIPSCs, mIPSCs): Evf2TS/TS and wild-type mice; for evoked IPSCs: wild-type and Evf2TS/TS mice
Description: Transverse hippocampal slices ([…]) were prepared from 3-5-month-old Evf2^TS/TS mice. Slices were cut in ice-cold (˜4° C.) oxygenated ACSF and then were allowed to recover for 1-2 h before being transferred to the recording chamber where they were continuously superfused with solution heated to 32-34° C. and saturated with 95% O2/5% CO2. The standard extracellular solution contained 124 mM NaCl, 3 mM KCl, 1.25 mM KH2PO4, 2.0 mM CaCl2, 1.3 mM MgCl2, 26 mM NaHCO3 and 10 mM glucose. The concentration of MgCl2 was raised to 2.0 mM and that of CaCl2 decreased to 1.4 mM in the slicing solution. […].
Somatic whole-cell recordings were obtained from CA1 pyramidal neurons under visual guidance using infrared differential interference contrast microscopy. Patch pipettes were pulled from borosilicate glass capillary tubing (A-M Systems). Internal solution for the patch pipettes contained 120 mM cesium methane sulphonate, 10 mM CsCl, 5 mM NaCl, 10 mM HEPES, 10 mM EGTA, 5 mM TEA-Cl, 4 mM Mg-ATP, 0.3 mM GTP and 5 mM QX-314 (pH 7.3-7.4), adjusted with CsOH, osmolarity 290±10 mOsm.
Voltage-clamp recordings were performed using Axopatch-200B (Axon Instruments). In all of our recordings, series resistance was <22 MΩ and was compensated at 80%. The recorded signal was low-pass filtered at 5 kHz and digitized at 10 kHz with a PCI-MIO-16E-4 board (National Instruments). All data were stored on a PC computer with custom software using C++ Builder 5.0 (Borland) and a NI DAQ 6.5 driver (National Instruments).
Evoked IPSCs were elicited at 0.1-0.07 Hz with a bipolar Pt/Ir electrode (2×25 μn) positioned on the stratum radiatum within 150 μm of the cell being recorded (Schaffer collateral-commisural fibers location site). At the beginning of each experiment, stimulus intensity was adjusted to evoke […] with amplitude of 0.4-0.2 nA. Evoked IPSCs were recorded at holding potential from −70 mV to +20 mV with 10-mV voltage steps after blocking EPSCs with a solution containing CNQX and D-AP5.
Spontaneous IPSCs were analyzed using MiniAnalysis 6.0.3 software (Synaptosoft). All events were manually selected on the basis of their kinetics. Between 250 and 450 individual events were analyzed for each cell. Post-recording analyses of evoked IPSPs were carried out using Clampfit 10 (Axon Instruments). All statistical values were evaluated with Origin 8 (MicroCal Software). Values are presented as mean±s.e.m. Statistical differences were established at P<0.05 using the Student t test, unless otherwise indicated.

Compound | locomotor response to cocaine [1] | spontaneous IPSCs (sIPSCs, mIPSCs) (CA1 pyramidal neurons) | spontaneous IPSCs (sIPSCs, mIPSCs) (CA1 pyramidal neurons; listed as picrotoxin) | evoked IPSCs (CA1 pyramidal neurons) | evoked IPSCs (CA1 pyramidal neurons; listed as picrotoxin)
C=CC(N)CCC(=O)O (centres unmarked) [GVG] | can attenuate locomotor response | – | – | – | –
Picrotoxin | – | blocked all IPSC activity | abolished | blocked evoked IPSCs | abolished
